{
  "source": "paper PMC9301601",
  "about": "(Frontiers in Pharmacology, 2022)",
  "tested_on": "hiPSC-CMs",
  "experiment": "Action potential recording in hiPSC-CMs, whole-cell patch-clamp (current-clamp)",
  "type": "cell-based, human",
  "conditions": "LPV-treated hiPSC-CMs, Figure 6H",
  "data": [
    {"smiles": "Cc1cccc(C)c1OCC(=O)N[C@@H](Cc1ccccc1)[C@@H](O)C[C@H](Cc1ccccc1)NC(=O)[C@H](C(C)C)N1CCCNC1=O", "note": "[LPV, lopinavir]", "values": [
      {"measurement": "Interval (spontaneous rate interval)", "value": "1.4 ± 0.3", "unit": "s"}
    ]}
  ]
}
